Like-named read-outs stand apart in the source and are kept apart here.
Assays:
Assay type in all cases: cell-based
[1] = molecular target: AXL (phospho-AXL, Gas6-stimulated A-172 glioblastoma cells) (Homo sapiens (Human), UniProt P30530); assay: AXL autophosphorylation ELISA in A-172 cells (Example E)
Method in brief: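 Phospho-AXL was measured by ELISA in lysates of Gas6-stimulated A-172 cells, starved 24 h in serum-free medium and exposed 1 h to an 8-point compound dilution at 0.3% DMSO.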

[2] = molecular target: KDR (phospho-KDR, VEGF165-stimulated HUVEC cells) (Homo sapiens (Human), UniProt P35968); assay: KDR autophosphorylation ELISA in HUVEC cells (Example G); details: cellular activity; KDR autophosphorylation ELISA in HUVEC cells
Method in brief: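 Read-out is phospho-KDR measured by ELISA in lysates of VEGF165-stimulated (100 ng/mL, 5 min) HUVEC that were serum-starved 24 h and then pre-exposed 1 h to compound across 8 doses in 0.3% DMSO. Unstimulated lysates defined 0% and stimulated vehicle lysates 100% activity; IC50 values come from 4-parameter logistic regression.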

[3] = molecular target: Mer (phospho-Mer, MERTK-transfected 293A cells) (Homo sapiens (Human), UniProt Q12866); assay: Mer autophosphorylation ELISA in transient transfected 293A cells (Example H); details: cellular activity; Mer autophosphorylation ELISA in transient transfected 293A cells
Method in brief: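 IC50 from 4-parameter logistic fit of phospho-Mer levels, quantified by ELISA against a phospho-Mer standard in lysates of MERTK-transfected 293A cells. Cells exposed 1 h to 8-point serial dilutions, serum-free, 0.3% DMSO; controls: DMSO (100%) and reference inhibitor (0%).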

[4] = molecular target: Met (phospho-Met, HGF-stimulated PC-3 prostate cancer cells) (Homo sapiens (Human), UniProt P08581); assay: Met autophosphorylation ELISA in PC-3 cells (Example F); details: cellular activity; Met autophosphorylation ELISA in PC-3 cells; read-out: c-Met IC50
Method in brief: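 IC50 values derive from a 4-parameter logistic fit of phospho-Met (panTyr) sandwich ELISA signals in PC-3 lysates, scaled between DMSO and reference-inhibitor wells. Cells, starved 3 h in serum-free medium, had 1 h compound exposure (8 doses, 0.3% DMSO) before 10 min stimulation with 100 ng/mL HGF.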

[5] = cellular activity, AXL autophosphorylation ELISA in A-172 cells, read-out: Axl IC50

Sequence of Met (phospho-Met, HGF-stimulated PC-3 prostate cancer cells) (P08581 25-1390): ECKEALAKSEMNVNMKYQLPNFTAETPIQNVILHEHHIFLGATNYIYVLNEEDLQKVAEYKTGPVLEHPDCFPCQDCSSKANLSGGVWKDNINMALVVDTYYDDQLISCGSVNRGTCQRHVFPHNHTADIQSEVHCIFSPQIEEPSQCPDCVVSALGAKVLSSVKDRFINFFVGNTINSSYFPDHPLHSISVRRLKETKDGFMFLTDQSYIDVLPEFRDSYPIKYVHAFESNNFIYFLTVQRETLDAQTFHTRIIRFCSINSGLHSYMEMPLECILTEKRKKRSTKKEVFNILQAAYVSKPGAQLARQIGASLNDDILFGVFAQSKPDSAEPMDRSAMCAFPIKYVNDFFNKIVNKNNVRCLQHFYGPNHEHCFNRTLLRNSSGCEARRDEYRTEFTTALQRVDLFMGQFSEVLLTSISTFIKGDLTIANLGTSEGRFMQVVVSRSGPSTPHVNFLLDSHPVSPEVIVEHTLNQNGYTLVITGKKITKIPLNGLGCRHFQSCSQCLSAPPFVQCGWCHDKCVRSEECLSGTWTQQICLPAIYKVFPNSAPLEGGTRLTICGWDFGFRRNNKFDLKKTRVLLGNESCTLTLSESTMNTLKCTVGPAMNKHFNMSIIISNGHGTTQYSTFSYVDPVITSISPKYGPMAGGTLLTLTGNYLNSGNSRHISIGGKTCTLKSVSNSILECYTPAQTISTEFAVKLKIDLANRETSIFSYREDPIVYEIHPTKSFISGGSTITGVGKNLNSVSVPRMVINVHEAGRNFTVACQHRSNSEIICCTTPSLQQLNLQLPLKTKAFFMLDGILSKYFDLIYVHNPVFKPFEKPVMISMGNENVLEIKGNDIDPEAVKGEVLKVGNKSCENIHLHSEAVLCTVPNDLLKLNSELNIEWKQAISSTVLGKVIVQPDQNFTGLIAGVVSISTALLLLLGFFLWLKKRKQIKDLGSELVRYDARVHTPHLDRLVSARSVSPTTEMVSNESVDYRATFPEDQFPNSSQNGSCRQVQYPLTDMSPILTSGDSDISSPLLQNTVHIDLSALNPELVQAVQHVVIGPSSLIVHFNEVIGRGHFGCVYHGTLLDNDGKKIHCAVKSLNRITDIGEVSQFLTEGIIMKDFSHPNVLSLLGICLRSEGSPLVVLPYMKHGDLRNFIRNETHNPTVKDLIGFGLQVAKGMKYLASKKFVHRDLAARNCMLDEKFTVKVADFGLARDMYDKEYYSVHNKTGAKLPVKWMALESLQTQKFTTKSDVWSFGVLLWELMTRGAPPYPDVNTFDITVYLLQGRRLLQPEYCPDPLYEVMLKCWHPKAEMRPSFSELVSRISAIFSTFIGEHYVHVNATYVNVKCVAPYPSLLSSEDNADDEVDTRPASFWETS
Sequence of KDR (phospho-KDR, VEGF165-stimulated HUVEC cells) (P35968 20-1356): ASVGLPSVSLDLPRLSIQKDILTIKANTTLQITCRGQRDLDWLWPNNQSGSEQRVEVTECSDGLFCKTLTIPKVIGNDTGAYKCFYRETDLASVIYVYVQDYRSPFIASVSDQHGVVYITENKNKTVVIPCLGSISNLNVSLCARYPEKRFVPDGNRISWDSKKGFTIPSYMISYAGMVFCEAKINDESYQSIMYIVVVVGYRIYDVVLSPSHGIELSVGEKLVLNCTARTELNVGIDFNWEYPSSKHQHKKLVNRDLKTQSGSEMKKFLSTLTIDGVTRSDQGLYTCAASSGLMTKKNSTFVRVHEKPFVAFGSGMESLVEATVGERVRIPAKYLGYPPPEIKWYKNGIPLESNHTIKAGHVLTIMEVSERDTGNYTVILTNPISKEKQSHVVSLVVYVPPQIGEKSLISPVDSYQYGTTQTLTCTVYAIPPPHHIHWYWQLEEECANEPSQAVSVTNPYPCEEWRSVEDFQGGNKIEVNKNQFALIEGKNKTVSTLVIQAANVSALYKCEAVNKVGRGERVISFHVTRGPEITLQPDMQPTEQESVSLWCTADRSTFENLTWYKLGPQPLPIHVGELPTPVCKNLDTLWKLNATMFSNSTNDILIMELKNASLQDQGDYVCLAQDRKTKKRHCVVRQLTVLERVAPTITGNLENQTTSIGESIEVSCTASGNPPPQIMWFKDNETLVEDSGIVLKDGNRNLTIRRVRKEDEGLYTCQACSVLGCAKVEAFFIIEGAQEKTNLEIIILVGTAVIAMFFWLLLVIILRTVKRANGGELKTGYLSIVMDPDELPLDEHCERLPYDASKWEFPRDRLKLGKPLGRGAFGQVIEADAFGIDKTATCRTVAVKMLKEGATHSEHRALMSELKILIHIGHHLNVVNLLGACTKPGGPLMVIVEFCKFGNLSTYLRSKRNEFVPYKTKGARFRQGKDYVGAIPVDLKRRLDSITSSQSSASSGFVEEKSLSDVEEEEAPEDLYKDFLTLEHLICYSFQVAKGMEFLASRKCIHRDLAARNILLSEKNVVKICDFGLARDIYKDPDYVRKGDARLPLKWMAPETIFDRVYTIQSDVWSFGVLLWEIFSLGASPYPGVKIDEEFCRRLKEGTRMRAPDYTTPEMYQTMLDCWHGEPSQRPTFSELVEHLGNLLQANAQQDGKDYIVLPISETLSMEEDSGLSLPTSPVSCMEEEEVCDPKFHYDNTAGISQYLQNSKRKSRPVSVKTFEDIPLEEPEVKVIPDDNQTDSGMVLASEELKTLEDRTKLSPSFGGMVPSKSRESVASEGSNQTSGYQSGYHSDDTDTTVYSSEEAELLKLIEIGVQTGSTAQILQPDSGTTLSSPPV
Sequence of Mer (phospho-Mer, MERTK-transfected 293A cells) (Q12866 21-999): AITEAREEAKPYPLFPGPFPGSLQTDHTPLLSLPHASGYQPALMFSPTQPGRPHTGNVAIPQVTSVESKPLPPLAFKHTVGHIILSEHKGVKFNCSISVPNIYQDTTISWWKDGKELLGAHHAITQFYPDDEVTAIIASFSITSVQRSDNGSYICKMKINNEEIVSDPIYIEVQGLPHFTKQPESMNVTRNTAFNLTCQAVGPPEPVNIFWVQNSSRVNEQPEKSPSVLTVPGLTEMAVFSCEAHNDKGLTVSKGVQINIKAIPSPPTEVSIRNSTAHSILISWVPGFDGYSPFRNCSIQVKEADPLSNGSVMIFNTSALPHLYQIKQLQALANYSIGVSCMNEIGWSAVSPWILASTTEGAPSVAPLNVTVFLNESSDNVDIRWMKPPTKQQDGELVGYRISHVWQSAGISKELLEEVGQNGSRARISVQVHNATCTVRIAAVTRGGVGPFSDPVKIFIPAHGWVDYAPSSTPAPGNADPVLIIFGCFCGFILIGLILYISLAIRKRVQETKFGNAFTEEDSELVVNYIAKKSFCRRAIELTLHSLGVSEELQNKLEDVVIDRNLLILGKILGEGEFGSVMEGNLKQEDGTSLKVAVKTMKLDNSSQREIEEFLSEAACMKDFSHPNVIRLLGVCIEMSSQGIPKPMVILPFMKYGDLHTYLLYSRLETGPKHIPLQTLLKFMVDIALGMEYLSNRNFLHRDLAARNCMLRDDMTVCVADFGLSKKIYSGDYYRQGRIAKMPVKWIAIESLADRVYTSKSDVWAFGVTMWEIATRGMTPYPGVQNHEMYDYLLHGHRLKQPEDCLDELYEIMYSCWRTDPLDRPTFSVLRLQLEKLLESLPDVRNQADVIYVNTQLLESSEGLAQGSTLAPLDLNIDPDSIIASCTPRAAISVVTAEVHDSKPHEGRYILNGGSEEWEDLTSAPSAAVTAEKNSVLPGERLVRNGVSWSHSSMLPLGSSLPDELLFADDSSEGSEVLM
Sequence of AXL (phospho-AXL, Gas6-stimulated A-172 glioblastoma cells) (P30530 26-894): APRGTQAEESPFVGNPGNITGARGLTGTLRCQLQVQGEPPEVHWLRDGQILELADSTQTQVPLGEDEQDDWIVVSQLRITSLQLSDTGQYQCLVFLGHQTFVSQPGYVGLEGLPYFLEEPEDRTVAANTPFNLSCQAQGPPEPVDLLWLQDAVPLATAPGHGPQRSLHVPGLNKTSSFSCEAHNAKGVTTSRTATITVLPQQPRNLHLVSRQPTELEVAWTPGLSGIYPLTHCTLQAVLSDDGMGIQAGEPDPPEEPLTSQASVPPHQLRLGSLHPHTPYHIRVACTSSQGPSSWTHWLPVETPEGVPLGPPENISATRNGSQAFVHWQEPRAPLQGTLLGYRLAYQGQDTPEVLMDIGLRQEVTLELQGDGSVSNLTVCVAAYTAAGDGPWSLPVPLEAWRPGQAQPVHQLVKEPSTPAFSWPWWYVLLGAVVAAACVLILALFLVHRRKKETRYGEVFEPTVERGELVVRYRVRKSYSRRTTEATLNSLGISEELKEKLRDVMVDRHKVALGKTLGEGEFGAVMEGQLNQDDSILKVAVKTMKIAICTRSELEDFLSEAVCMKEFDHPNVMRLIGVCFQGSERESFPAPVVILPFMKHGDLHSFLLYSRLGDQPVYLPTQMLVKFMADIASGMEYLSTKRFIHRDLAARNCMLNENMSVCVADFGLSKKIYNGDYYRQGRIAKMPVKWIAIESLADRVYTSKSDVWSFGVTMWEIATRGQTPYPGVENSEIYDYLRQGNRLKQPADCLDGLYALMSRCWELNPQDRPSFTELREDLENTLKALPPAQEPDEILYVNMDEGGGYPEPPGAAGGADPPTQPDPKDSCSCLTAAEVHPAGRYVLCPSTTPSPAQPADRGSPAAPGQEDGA

SMILES | IC50 [1, 5] [nM] | IC50 [2] [nM] | IC50 [3] [nM] | IC50 [4] [nM] | IC50 [1] [nM]
COc1cc2nccc(Oc3ccc(NC(=O)c4nn(C(C)C)c(C)c(-c5ccc(F)cc5)c4=O)cc3F)c2cc1OC [Compound 575, N-[4-(6,7-Dimethoxyquinolin-4-yl)oxy-3-fluorophenyl]-5-(4-fluorophenyl)-6-methyl-4-oxo-1-propan-2-ylpyridazine-3-carboxamide] | < 100 | < 100 | < 100 | < 100 | –
COCc1cnn(-c2ccc(F)cc2)c(=O)c1C(=O)Nc1ccc(Oc2ccnc3cc(OC)c(OC)nc23)c(F)c1 [Compound 533, N-[4-[(6,7-dimethoxy-1,5-naphthyridin-4-yl)oxy]-3-fluorophenyl]-2-(4-fluorophenyl)-5-(methoxymethyl)-3-oxopyridazine-4-carboxamide] | < 100 | < 100 | < 100 | < 100 | –
COc1cc2nccc(Oc3ccc(NC(=O)c4c(C)c(C(C)=O)c(C)n(-c5ccc(F)cc5)c4=O)cc3F)c2nc1OC [Compound 321, 5-Acetyl-N-[4-[(6,7-dimethoxy-1,5-naphthyridin-4-yl)oxy]-3-fluorophenyl]-1-(4-fluorophenyl)-4,6-dimethyl-2-oxopyridine-3-carboxamide] | – | 100 to 300 | < 100 | < 100 | < 100
COc1cc2nccc(Oc3ccc(NC(=O)c4nnc(C)c(-c5ccc(F)cc5)c4OC)cc3)c2nc1OC [Compound 534, N-[4-[(6,7-dimethoxy-1,5-naphthyridin-4-yl)oxy]phenyl]-5-(4-fluorophenyl)-4-methoxy-6-methylpyridazine-3-carboxamide] | < 100 | < 100 | < 100 | < 100 | –
C=C(C)c1cnc2c(Oc3ccc(NC(=O)c4n[nH]c(C)c(-c5ccc(F)cc5C)c4=O)cc3F)ccnc2c1 [Compound 463, 5-(4-fluoro-2-methylphenyl)-N-[3-fluoro-4-[(7-prop-1-en-2-yl-1,5-naphthyridin-4-yl)oxy]phenyl]-6-methyl-4-oxo-1H-pyridazine-3-carboxamide] | < 100 | < 100 | < 100 | < 100 | –
COc1cc2nccc(Oc3ccc(NC(=O)c4cn5cc(C)oc5c(-c5ccc(F)cc5)c4=O)cc3F)c2nc1OC [Compound 491, N-[4-[(6,7-dimethoxy-1,5-naphthyridin-4-yl)oxy]-3-fluorophenyl]-8-(4-fluorophenyl)-2-methyl-7-oxo-[1,3]oxazolo[3,2-a]pyridine-6-carboxamide] | < 100 | > 300 | < 100 | < 100 | –
Cc1ncc(C(=O)Nc2ccc(Oc3ccnc4cnc(Cl)cc34)c(F)c2)c(=O)n1-c1ccc(F)cc1 [Compound 497, N-[4-[(6-chloro-1,7-naphthyridin-4-yl)oxy]-3-fluorophenyl]-1-(4-fluorophenyl)-2-methyl-6-oxopyrimidine-5-carboxamide] | < 100 | > 300 | < 100 | < 100 | –
COc1cc2nccc(Oc3ccc(NC(=O)c4nnc(C)c(-c5ccc(F)cc5)c4OC(C)C)cc3F)c2cc1OC [Compound 574, N-[4-(6,7-Dimethoxyquinolin-4-yl)oxy-3-fluorophenyl]-5-(4-fluorophenyl)-6-methyl-4-propan-2-yloxypyridazine-3-carboxamide] | < 100 | < 100 | < 100 | < 100 | –

Continued, in another order:

IC50 [1, 5] [nM] | IC50 [2] [nM] | IC50 [3] [nM] | IC50 [4] [nM] | SMILES | IC50 [1] [nM]
< 100 | < 100 | < 100 | < 100 | COc1cnc2c(Oc3ccc(NC(=O)c4c(C)ncc(-c5ccc(F)c(F)c5)c4O)cc3F)ccnc2c1 [Compound 797, 5-(3,4-difluorophenyl)-N-[3-fluoro-4-[(7-methoxy-1,5-naphthyridin-4-yl)oxy]phenyl]-4-hydroxy-2-methylpyridine-3-carboxamide] | –
< 100 | < 100 | < 100 | < 100 | COc1cc2nccc(Oc3ccc(NC(=O)c4c(C)c(C)cn(-c5ccc(F)cc5)c4=O)cc3F)c2nc1OC [Compound 679, N-[4-[(6,7-dimethoxy-1,5-naphthyridin-4-yl)oxy]-3-fluorophenyl]-1-(4-fluorophenyl)-4,5-dimethyl-2-oxopyridine-3-carboxamide] | –
> 300 | < 100 | < 100 | 100 to 300 | COc1cnc2c(Oc3ccc(NC(=O)c4c(C)nc(C)c(-c5ccc(OC)c(F)c5)c4O)cc3F)ccnc2c1 [Compound 693, N-[3-fluoro-4-[(7-methoxy-1,5-naphthyridin-4-yl)oxy]phenyl]-5-(3-fluoro-4-methoxyphenyl)-4-hydroxy-2,6-dimethylpyridine-3-carboxamide] | –
< 100 | < 100 | < 100 | < 100 | C=Cc1c(C)c(C(=O)Nc2ccc(Oc3ccnc4cc(OCCOC)c(OC)nc34)c(F)c2)c(=O)n(-c2ccc(F)cc2)c1C [Compound 740, 5-ethenyl-N-[3-fluoro-4-[[6-methoxy-7-(2-methoxyethoxy)-1,5-naphthyridin-4-yl]oxy]phenyl]-1-(4-fluorophenyl)-4,6-dimethyl-2-oxopyridine-3-carboxamide] | –
< 100 | < 100 | < 100 | < 100 | COc1cc2nccc(Oc3ccc(NC(=O)c4c[nH]c(=S)n(-c5ccc(F)cc5)c4=O)cc3F)c2cc1OC [Compound 646, N-[4-(6,7-dimethoxyquinolin-4-yl)oxy-3-fluorophenyl]-3-(4-fluorophenyl)-4-oxo-2-sulfanylidene-1H-pyrimidine-5-carboxamide] | –
100 to 300 | < 100 | < 100 | < 100 | COc1cnc2c(Oc3ccc(NC(=O)c4c(C)nc(C)c(-c5ccc(OC)c(C)c5)c4O)cc3F)ccnc2c1 [Compound 692, N-[3-fluoro-4-[(7-methoxy-1,5-naphthyridin-4-yl)oxy]phenyl]-4-hydroxy-5-(4-methoxy-3-methylphenyl)-2,6-dimethylpyridine-3-carboxamide] | –
< 100 | 100 to 300 | < 100 | < 100 | COc1cc2nccc(Oc3ccc(NC(=O)c4cn(CC(F)F)c(C)c(-c5ccc(F)cc5C)c4=O)cc3F)c2nc1OC [Compound 730, 1-(2,2-difluoroethyl)-N-[4-[(6,7-dimethoxy-1,5-naphthyridin-4-yl)oxy]-3-fluorophenyl]-5-(4-fluoro-2-methylphenyl)-6-methyl-4-oxopyridine-3-carboxamide] | –
100 to 300 | < 100 | < 100 | < 100 | COc1ccc(-c2c(C)nc(C)c(C(=O)Nc3ccc(Oc4ccnc5cc(OC)cnc45)c(F)c3)c2O)c(F)c1 [Compound 691, N-[3-fluoro-4-[(7-methoxy-1,5-naphthyridin-4-yl)oxy]phenyl]-5-(2-fluoro-4-methoxyphenyl)-4-hydroxy-2,6-dimethylpyridine-3-carboxamide] | –
< 100 | > 300 | < 100 | < 100 | COc1cc2nccc(Oc3ccc(NC(=O)c4cn(CC(F)F)c(C)c(-c5ccc(F)cc5C)c4=O)cc3)c2nc1OC [Compound 722, 1-(2,2-difluoroethyl)-N-[4-[(6,7-dimethoxy-1,5-naphthyridin-4-yl)oxy]phenyl]-5-(4-fluoro-2-methylphenyl)-6-methyl-4-oxopyridine-3-carboxamide] | –

— patent US12371428B2 (Exelixis, Inc., priority 2019, dated 2025)
